Reference: PMC10004777 (Molecules, 2023)
Read-outs that look alike come from different tables or passages of the source.

Experiments:
[1] = test system: MCF-7 breast cancer cells; experiment: Cell viability (MTT) assay, MCF-7; assay type: cell-based; conditions: for Viability of Cells (% of Control): 48 h, MTT
Method: MCF-7 is a commonly used tumor cell line.
(§1) The cell lines present in this study were obtained from Procell Life Science & Technology Co. Ltd. MCF-7, HepG2 and SJSA-1 cells were cultured in DMEM medium (DMEM, Gibco) supplemented with 10% fetal bovine serum (FBS, Gibco), 1% penicillin-streptomycin (Hyclone) at 37℃ in a humid environment with 5% CO2. HK-2 cells were cultured in DMEM/F12 (1:1) medium and placed in incubators in the same environment.
(§2) Cell viability was determined by MTT assay. MCF-7, HepG2, SJSA-1 and HK-2 cells (6 × 10^3 cells /well) were seeded in 96-well plates with serum-free medium for 24 h. […] After 48 or 72 h, 10 μL MTT (5 mg/mL, Beyotime) was added and incubated at 37 °C for 4 h. Then 100 μL of lysate was added. After complete dissolution of the crystal, the absorbance was measured at 540 nm and expressed as the average percentage of absorbance between treated and control cells. The value for control cells was set at 100%. Cell survival rate was calculated as the ratio of the absorbance of the cells and negative control after minus the blank absorbance respectively.

[2] = test system: MDM2, p53 protein and Bcl-2/Bax in MCF-7 cells; experiment: Western blot protein expression, MCF-7; assay type: cell-based; conditions: MCF-7, 24 h
From the text: (§3) In the introduction section, we introduced that the concept that the MDM2-p53 pathway can induce cell apoptosis by up-regulating the expression of p53 protein to inhibit the proliferation of tumor cells, and by blocking the interaction of MDM2 and p53, the activation of p53 results in transcription of MDM2 mRNA, leading to robust MDM2 protein accumulation. In order to verify the effect of A2 on this pathway, we examined the effect of A2 on the protein level of MDM2, p53 protein and Bcl-2/Bax related to apoptosis, as shown in Figure 5. […] The level of Bcl-2/Bax decreased which was consistent with the apoptosis of MCF-7 cells induced by A2. We also investigated the effect of A2 on the SJSA-1 cell line which overexpresses MDM2.
For Western blot analysis, MCF-7 and SJSA-1 cells were treated with different concentrations of A2 for 24 h. The total cell protein was extracted, and proteins were isolated using 10% SDS-PAGE gel system. The proteins on the gel were transferred to PVDF membrane, blocked in 5% BSA at room temperature for 2 h, incubated in primary antibody dilution at 4 °C overnight, and washed with TBST for 3 times, 10 min each. Then, they were transferred to dilute release solution of secondary antibody and incubated at room temperature for 2 h. ECL chemiluminescence development solution (Beyotime, BeyoECL star) was added uniformly and detected on gel imaging system (Clinx ChemiScope, China). Antibodies for blotting were MDM2 (abcam, ab16895), P53 (Proteintech, 10442-1-AP), Bcl-2 (CST, 15071S), Bax (CST, 2772T) and β-actin (abcam, ab8226).

[3] = test system: HK-2 cells; experiment: Cell viability (MTT) assay, HK-2 normal cells (cytotoxicity); assay type: cell-based; conditions: HK-2 normal cells, 48 h, MTT
Method: as §1, §2

[4] = test system: SJSA-1 cells; experiment: Flow cytometry apoptosis, Annexin V-FITC/PI staining; assay type: cell-based; conditions: 24 h
Method: Cells were stained with Annexin V-FITC and propidium iodide.
To determine the apoptosis rate, an Annexin V-FITC/PI double staining apoptosis assay kit (Beyotime) was used to detect apoptotic cells by flow cytometry (BD FACSALOBUR), according to the manufacturer’s instructions. Briefly, SJSA-1 cells were treated with 0.1% DMSO, 12.5, 25, and 50 μM of A2 for 24 h. After harvesting, the cells were incubated with 5 μL Annexin V-FITC for 15 min and 10 μL PI for 5 min at 4 °C under dark conditions. Flow cytometry was then performed to analyze the apoptosis rate. Data were analyzed by using BD FACSDiva 8.0.1.

[5] = target: T1, MDM2 protein (Homo sapiens, UniProt Q00987); experiment: Surface plasmon resonance (SPR) binding assay
T1 construct: purchased Protintech (so in the source)
Method: In order to speculate whether A2 effects the p53-MDM2 pathway by binding with MDM2 to inhibit the interaction between MDM2 and p53, we carried out in silico and in vitro binding experiments. […] We used the S-value to evaluate the binding degree of the compound and MDM2 in the molecular docking experiments. The higher the absolute value of this number, the stronger the binding force.
MDM2 protein (5 mg/mL, Protintech) was immobilized on a PCH sensor chip (Octet) and preactivated with EDC/NHS mixture for 420 s at a flow rate of 10 μL/min. A2 was diluted to 100, 50, 25, 12.5, 6.25, 3.13, 0 μM with PBST buffer containing 1% DMSO. The binding time was 600 s, and the flow rate was 20 μL/min. The dissociation time was 180 s, and the affinity constant KD value was obtained by computer fitting and steady-state analysis.

[6] = test system: osteosarcoma cell line SJSA-1; experiment: Cell viability (MTT) assay, SJSA-1; assay type: cell-based; conditions: for Viability of Cells (% of Control): 72 h, MTT
Method: (§4) To investigate the selectivity of these derivatives towards different tumor cell lines, we also selected HepG2 and osteosarcoma cell line SJSA-1 cells to evaluate the anti-proliferation activity of the derivatives. […] Except for compounds A2 and A11, the effects of other compounds on SJSA-1 were not strong.
as §1, §2

[7] = test system: MDM2 and p53 protein in SJSA-1 cell line; experiment: Western blot protein expression, SJSA-1; assay type: cell-based; conditions: SJSA-1, 24 h, 12.5, 25 and 50 µM
From the text: as §3
For Western blot analysis, MCF-7 and SJSA-1 cells were treated with different concentrations of A2 for 24 h. The total cell protein was extracted, and proteins were isolated using 10% SDS-PAGE gel system. The proteins on the gel were transferred to PVDF membrane, blocked in 5% BSA at room temperature for 2 h, incubated in primary antibody dilution at 4 °C overnight, and washed with TBST for 3 times, 10 min each. […] ECL chemiluminescence development solution (Beyotime, BeyoECL star) was added uniformly and detected on gel imaging system (Clinx ChemiScope, China). […]

[8] = test system: HepG2 cells; experiment: Cell viability (MTT) assay, HepG2; assay type: cell-based; conditions: for Viability of Cells (% of Control): 48 h, MTT
Method: as §4, §1, §2

[9] = target: T1, MDM2 protein; set-up: method as in PMID 22380771
[10] = test system: 95-D cells versus H1299 cells; set-up: method as in doi:10.13386/j.issn1002-0306.2015.11.030; conditions: cited from earlier work

T1 sequence (Q00987 whole entry): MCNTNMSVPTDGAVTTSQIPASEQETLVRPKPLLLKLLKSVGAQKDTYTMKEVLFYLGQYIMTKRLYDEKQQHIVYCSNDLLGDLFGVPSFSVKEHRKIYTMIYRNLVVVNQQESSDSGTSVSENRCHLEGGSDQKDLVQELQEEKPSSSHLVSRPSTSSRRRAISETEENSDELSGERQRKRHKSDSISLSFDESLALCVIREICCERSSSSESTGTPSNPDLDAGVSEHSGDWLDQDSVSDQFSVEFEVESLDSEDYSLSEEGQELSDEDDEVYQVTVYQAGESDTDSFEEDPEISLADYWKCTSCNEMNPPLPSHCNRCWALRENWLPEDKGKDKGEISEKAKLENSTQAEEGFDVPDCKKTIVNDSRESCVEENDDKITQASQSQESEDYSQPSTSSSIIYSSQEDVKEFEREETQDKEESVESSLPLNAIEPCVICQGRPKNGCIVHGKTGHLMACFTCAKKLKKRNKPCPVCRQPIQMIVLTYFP

Row | SMILES | Viability of Cells (% of Control) ([1]; MCF-7, 25 µM) | Viability of Cells (% of Control) ([1]; MCF-7, 50 µM) | Viability of Cells (% of Control) ([1]; MCF-7, 100 µM) | Viability of Cells (% of Control) ([3]; 50 µM) | Viability of Cells (% of Control) ([3]; 100 µM) | Viability of Cells (% of Control) ([6]; SJSA-1, 50 µM) | Viability of Cells (% of Control) ([6]; SJSA-1, 100 µM) | Viability of Cells (% of Control) ([8]; HepG2, 25 µM) | Viability of Cells (% of Control) ([8]; HepG2, 50 µM) | other results
1 | CCCCCCNC(=O)[C@H](C)CC(=O)C[C@@H](C)[C@H]1C[C@H](O)[C@@]2(C)C3=C(C(=O)C[C@]12C)[C@@]1(C)CCC(=O)C(C)(C)[C@@H]1C[C@@H]3O [Compound A2, (n-hexyl)-(7β,15α,25R)-7,15-Dihydroxy-3,11,23-Trioxolanost-8-en-26-oic Amide] | 66.76 ± 6.2 % of Control | 59.4 ± 4.7 % of Control | 50.37 ± 1.7 % of Control | 97.1 ± 4.1 % of Control | 90.9 ± 3.0 % of Control | 51.4 ± 1.7 % of Control | 28.5 ± 3.4 % of Control | 78.8 ± 1.7 % of Control | 48.4 ± 2.1 % of Control | anti-proliferation activity on MCF-7 compared with GAA ([1]; MCF-7, 48 h): significant anti-proliferation activities; level of Bcl-2/Bax [2]: decreased; MDM2 protein level ([2]; 50 µM): increasing trend; p53 protein level ([2]; 50 µM): increasing trend; melting point: 129.9 to 131.3 °C; proportion of early phase apoptosis cells (Q3) ([4]; SJSA-1, 12.5 µM): 11.6%; proportion of early phase apoptosis cells (Q3) ([4]; SJSA-1, 25 µM): 12.3%; proportion of early phase apoptosis cells (Q3) ([4]; SJSA-1, 50 µM): 18.7%; Kd ([5]; immobilized MDM2, steady-state analysis): 1680 nM; Kd ([5]; printed in Figure 7): 1648 ± 7 nM; anti-proliferation activity on SJSA-1 (in words) ([6]; SJSA-1, 72 h): potent inhibition; expression of MDM2 [7]: increased in a dose-dependent manner; expression of p53 protein [7]: increased in a dose-dependent manner; anti-proliferation activity on HepG2 (in words) ([8]; HepG2, 48 h): potent anti-proliferation activity
2 | C[C@H](CC(=O)C[C@@H](C)[C@H]1C[C@H](O)[C@@]2(C)C3=C(C(=O)C[C@]12C)[C@@]1(C)CCC(=O)C(C)(C)[C@@H]1C[C@@H]3O)C(=O)O [GAA, Ganoderic acid A, reference compound] | 109.9 ± 2.1 % of Control | 86.2 ± 5.2 % of Control | 83.6 ± 9.4 % of Control | 117.8 ± 6.3 % of Control | 104.9 ± 7.6 % of Control | 73.5 ± 1.1 % of Control | 74.0 ± 4.0 % of Control | 83.0 ± 1.5 % of Control | 84.0 ± 0.1 % of Control | Ki ([9]; read-out: Ki (predicted affinity with MDM2 protein); virtual screening prediction; cited from earlier work): 147 nM
3 | CC(=O)O[C@@H]1C(=O)C2=C(C(=O)C[C@H]3C(C)(C)C(=O)CC[C@]23C)[C@]2(C)C(=O)C[C@H]([C@H](C)CC(=O)CC(C)C(=O)O)[C@@]12C (some centres unmarked) [ganoderic acid F] | – | – | – | – | – | – | – | – | – | Ki ([9]; virtual screening prediction; read-out: Ki (predicted affinity with MDM2 protein); cited from earlier work): 212 nM
4 | CC(=O)O[C@@H](C/C=C(\C)C(=O)O)[C@@H](C)[C@H]1C[C@H](OC(C)=O)[C@@]2(C)C3=CC[C@H]4C(C)(C)[C@H](OC(C)=O)CC[C@]4(C)C3=CC[C@]12C [ganoderic acid T] | – | – | – | – | – | – | – | – | – | sensitivity of 95-D cells (wild-type p53) relative to H1299 cells (no p53) [10]: 3.3 times
